Columns and labels:
[1] = biological target: T1, BRM (Homo sapiens, UniProt P51531); assay: ATPase catalytic activity of BRM, ADP-Glo in vitro biochemical assay; conditions: for IC50: ATPase catalytic activity, ADP-Glo, 30 nM BRM, 400 μM ATP; for Ratio*: ratio of BRG1 IC50 to BRM IC50
T1 construct: made in house; host or cells: High Five insect cells
In short: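 ADP-Glo luminescence, after depletion of leftover ATP and conversion of ADP, reported the activity. The 1 h room-temperature reaction held 400 μM ATP, 20 nM salmon sperm DNA and 30 nM BRM in 20 mM Tris pH 8, 20 mM MgCl2, 50 mM NaCl, 0.1% Tween-20, 1 mM DTT.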

[2] = biological target: T2, BRG-1 (Homo sapiens, UniProt P51532); assay: ATPase catalytic activity of BRG-1, ADP-Glo in vitro biochemical assay; conditions: ATPase catalytic activity, ADP-Glo; 30 nM BRG-1, 400 μM ATP; read-out: BRG1 IC50
T2 construct: made in house; host or cells: High Five insect cells
T2 sequence (P51532 whole entry): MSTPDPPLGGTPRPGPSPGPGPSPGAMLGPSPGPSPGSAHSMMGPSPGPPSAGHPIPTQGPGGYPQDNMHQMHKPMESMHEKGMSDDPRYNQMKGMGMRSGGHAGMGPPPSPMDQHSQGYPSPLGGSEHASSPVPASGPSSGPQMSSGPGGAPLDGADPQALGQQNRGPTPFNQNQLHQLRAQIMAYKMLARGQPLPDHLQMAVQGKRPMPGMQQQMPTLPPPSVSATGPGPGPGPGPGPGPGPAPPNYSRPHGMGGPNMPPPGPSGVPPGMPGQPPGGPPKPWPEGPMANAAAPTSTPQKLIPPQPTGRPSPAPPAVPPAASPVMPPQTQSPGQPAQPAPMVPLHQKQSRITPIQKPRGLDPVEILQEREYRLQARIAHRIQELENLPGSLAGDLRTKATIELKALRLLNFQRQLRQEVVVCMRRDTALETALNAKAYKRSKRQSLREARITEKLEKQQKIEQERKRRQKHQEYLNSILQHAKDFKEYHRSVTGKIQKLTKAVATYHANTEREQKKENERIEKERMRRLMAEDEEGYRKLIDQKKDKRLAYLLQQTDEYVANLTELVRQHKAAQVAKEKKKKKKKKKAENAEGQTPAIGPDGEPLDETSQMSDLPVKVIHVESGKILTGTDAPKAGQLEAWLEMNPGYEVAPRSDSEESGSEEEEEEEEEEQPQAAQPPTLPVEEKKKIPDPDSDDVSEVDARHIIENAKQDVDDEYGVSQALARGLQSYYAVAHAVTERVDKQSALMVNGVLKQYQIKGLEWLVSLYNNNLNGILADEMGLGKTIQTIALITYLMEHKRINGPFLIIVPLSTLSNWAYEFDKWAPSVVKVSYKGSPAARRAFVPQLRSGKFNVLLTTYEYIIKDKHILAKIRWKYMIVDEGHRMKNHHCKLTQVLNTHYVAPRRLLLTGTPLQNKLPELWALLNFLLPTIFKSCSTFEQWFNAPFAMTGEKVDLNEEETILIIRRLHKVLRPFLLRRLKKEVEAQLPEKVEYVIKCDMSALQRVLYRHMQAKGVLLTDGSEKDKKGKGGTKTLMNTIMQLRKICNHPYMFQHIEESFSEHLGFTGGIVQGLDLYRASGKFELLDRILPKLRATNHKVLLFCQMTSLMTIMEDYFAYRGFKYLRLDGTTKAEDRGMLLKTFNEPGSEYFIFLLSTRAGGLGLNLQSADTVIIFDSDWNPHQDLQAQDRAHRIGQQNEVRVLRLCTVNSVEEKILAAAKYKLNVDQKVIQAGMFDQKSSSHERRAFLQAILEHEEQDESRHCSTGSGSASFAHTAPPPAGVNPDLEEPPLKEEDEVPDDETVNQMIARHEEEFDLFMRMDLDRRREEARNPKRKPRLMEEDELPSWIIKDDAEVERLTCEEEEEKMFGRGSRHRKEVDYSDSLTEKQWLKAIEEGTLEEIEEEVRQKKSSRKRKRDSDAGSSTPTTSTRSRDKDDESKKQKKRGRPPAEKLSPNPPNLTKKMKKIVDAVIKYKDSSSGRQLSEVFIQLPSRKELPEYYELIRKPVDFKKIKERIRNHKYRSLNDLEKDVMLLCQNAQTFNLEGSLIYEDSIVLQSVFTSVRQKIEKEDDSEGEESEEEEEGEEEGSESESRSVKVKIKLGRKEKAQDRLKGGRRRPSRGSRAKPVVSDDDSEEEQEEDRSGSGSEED
In short: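 In this in vitro format, BRG-1 hydrolysis product ADP is detected via a two-step ADP-Glo workup (ATP removal, then ADP-to-ATP conversion with luciferase detection) followed by a luminescence read.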

T1 sequence (P51531 whole entry): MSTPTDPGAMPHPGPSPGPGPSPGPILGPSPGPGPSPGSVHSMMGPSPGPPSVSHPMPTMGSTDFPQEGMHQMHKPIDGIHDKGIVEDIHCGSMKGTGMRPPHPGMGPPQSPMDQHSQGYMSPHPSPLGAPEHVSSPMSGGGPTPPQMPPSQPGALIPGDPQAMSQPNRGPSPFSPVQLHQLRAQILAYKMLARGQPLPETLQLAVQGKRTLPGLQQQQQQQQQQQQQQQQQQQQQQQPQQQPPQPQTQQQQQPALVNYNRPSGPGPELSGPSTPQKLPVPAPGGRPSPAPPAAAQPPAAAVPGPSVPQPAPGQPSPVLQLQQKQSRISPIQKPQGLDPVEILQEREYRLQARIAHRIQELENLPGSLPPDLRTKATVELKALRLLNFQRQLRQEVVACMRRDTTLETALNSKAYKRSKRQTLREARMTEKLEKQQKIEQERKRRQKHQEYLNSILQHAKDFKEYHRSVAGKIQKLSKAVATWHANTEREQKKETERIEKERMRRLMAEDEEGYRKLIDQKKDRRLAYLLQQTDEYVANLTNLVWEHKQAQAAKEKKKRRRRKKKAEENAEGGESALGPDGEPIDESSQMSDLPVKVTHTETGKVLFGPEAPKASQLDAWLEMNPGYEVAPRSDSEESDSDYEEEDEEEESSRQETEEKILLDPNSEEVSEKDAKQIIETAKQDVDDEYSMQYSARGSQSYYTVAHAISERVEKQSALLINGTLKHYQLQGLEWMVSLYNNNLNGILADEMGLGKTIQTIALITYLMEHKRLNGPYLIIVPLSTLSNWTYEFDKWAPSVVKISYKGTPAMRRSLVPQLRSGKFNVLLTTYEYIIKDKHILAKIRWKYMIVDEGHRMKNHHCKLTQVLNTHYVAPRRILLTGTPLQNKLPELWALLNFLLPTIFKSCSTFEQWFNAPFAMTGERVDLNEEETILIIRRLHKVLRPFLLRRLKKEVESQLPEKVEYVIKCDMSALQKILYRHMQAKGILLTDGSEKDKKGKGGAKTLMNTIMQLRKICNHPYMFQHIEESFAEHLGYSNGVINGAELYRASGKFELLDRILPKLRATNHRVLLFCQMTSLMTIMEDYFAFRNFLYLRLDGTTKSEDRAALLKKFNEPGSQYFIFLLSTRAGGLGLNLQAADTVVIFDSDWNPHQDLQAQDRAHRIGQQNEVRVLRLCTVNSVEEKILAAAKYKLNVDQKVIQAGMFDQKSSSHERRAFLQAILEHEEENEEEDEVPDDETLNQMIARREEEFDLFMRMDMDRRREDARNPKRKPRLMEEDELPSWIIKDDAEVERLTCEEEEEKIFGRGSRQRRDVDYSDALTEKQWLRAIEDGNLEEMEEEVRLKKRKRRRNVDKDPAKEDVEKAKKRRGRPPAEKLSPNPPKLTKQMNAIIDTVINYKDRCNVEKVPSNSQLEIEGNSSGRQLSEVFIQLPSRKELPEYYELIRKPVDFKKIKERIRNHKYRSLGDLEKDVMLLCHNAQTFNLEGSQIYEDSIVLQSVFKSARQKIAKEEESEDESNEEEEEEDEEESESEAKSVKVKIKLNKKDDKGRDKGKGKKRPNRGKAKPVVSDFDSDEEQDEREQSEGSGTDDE

Structure (SMILES) | IC50 [1] [µM] | Ratio* [1] | IC50 [2] [µM]
C[C@H]1COCc2ccc(C(=O)NCc3cc4nc(N5CCCc6cc(N(C)C)cnc65)ccc4cn3)cc2S1(=O)=O [Compound 650] | 0.0127 | 9.04 | 0.115
COCCc1ccc2c(n1)N(c1ccc3cnc(CNC(=O)c4ccc5c(c4)S(=O)(=O)CCOC5)cc3n1)CCC2 [Compound 651] | 0.0553 | 30.77 | 1.7
O=C(NCc1cc2nc(N3CCCC4CCCC43)ccc2cn1)c1ccc2c(c1)S(=O)(=O)CCOC2 (stereo not drawn) [Compound 652] | 0.443 | 7.21 | 3.19
COc1ccc2c(c1)CCN2c1ccc2cnc(CNC(=O)c3ccc4c(c3)S(=O)(=O)CCOC4)cc2n1 [Compound 653] | 0.23 | 7.47 | 1.72
O=C(NCc1cc2nc(N3CCc4ccc(Cl)cc43)ccc2cn1)c1ccc2c(c1)S(=O)(=O)CCOC2 [Compound 654] | 0.104 | 24.78 | 2.57
C[C@@H]1CN(c2cccc(-c3ccc4cnc(CNC(=O)c5ccc6c(c5)S(=O)(=O)CCOC6(C)C)cc4n3)n2)C[C@H](C)O1 [Compound 655] | 0.249 | 15.80 | 3.93
Cc1cnc2c(c1)CCN2c1ccc2cnc(CNC(=O)c3ccc4c(c3)S(=O)(=O)CCOC4)cc2n1 [Compound 656] | 0.0122 | 10.50 | 0.128
Cc1cc2c(-c3ccc4cnc(CNC(=O)c5ccc6c(c5)S(=O)(=O)CCOC6)cc4n3)cncc2n1C [Compound 657] | 0.0353 | 5.73 | 0.202
CCc1ccc2c(n1)N(c1ccc3cnc(CNC(=O)c4ccc5c(c4)S(=O)(=O)CCOC5)cc3n1)CCO2 [Compound 658] | 0.007 | 48.50 | 0.342
O=C(NCc1cc2nc(N3CCCc4ccc(C5CCCO5)nc43)ccc2cn1)c1ccc2c(c1)S(=O)(=O)CCOC2 (stereo not drawn) [Compound 659] | 0.0427 | 24.28 | 1.04
COCc1cc2c(nc1Cl)N(c1ccc3cnc(CNC(=O)c4ccc5c(c4)S(=O)(=O)CCOC5)cc3n1)CCC2 [Compound 660] | 0.0072 | 8.17 | 0.059
C[C@@H]1Cc2ccc(-c3ccc4cnc(CNC(=O)c5ccc6c(c5)S(=O)(=O)CCOC6)cc4n3)nc2N(C)C1 [Compound 661] | 0.0439 | 6.86 | 0.301
C[C@H]1Cc2ccc(-c3ccc4cnc(CNC(=O)c5ccc6c(c5)S(=O)(=O)CCOC6)cc4n3)nc2N(C)C1 [Compound 662] | 0.0367 | 4.71 | 0.173
CCc1cnc2c(c1)OCCN2c1ccc2cnc(CNC(=O)c3ccc4c(c3)S(=O)(=O)CCOC4)cc2n1 [Compound 665] | 0.0064 | 13.54 | 0.0868
O=C(NCc1cc2nc(N3CCCc4cc(N5CCC5)cnc43)ccc2cn1)c1ccc2c(c1)S(=O)(=O)CCOC2 [Compound 666] | 0.0242 | 11.06 | 0.268
C[C@@H]1CN(c2cccc(-c3ccc4cnc(CNC(=O)c5ccc6c(c5)S(=O)(=O)[C@@H](C)CN6C5CC5)cc4n3)n2)C[C@H](C)O1 [Compound 667] | 0.039 | 13.24 | 0.517
CO[C@@H]1C[C@@H]1N(C)c1cccc(-c2ccc3cnc(CNC(=O)c4ccc5c(c4)S(=O)(=O)[C@@H](C)COC5)cc3n2)n1 [Compound 668] | 0.0084 | 8.70 | 0.0734
CO[C@H]1C[C@H]1N(C)c1cccc(-c2ccc3cnc(CNC(=O)c4ccc5c(c4)S(=O)(=O)[C@@H](C)COC5)cc3n2)n1 [Compound 669] | 0.0171 | 18.96 | 0.324
CO[C@H]1C[C@@H]1N(C)c1cccc(-c2ccc3cnc(CNC(=O)c4ccc5c(c4)S(=O)(=O)[C@@H](C)COC5)cc3n2)n1 [Compound 670] | 0.0101 | 8.79 | 0.0883
CO[C@@H]1C[C@H]1N(C)c1cccc(-c2ccc3cnc(CNC(=O)c4ccc5c(c4)S(=O)(=O)[C@@H](C)COC5)cc3n2)n1 [Compound 672] | 0.0152 | 13.70 | 0.209
COCCn1cc2c(-c3ccc4cnc(CNC(=O)c5ccc6c(c5)S(=O)(=O)CCOC6)cc4n3)cccc2n1 [Compound 673] | 0.568 | 8.79 | 4.99
O=C(NCc1cc2nc(N3CCCc4ccc(OCC5COC5)cc43)ccc2cn1)c1ccc2c(c1)S(=O)(=O)CCOC2 [Compound 676] | 0.003 | 11.70 | 0.0355
O=C(NCc1cc2nc(N3CCCc4c(OC5CC5)ccnc43)ccc2cn1)c1ccc2c(c1)S(=O)(=O)CCOC2 [Compound 677] | 0.0038 | 9.28 | 0.0357

Structure (SMILES) | IC50 [1] [µM] | Ratio* [1] | IC50 [2] [µM]
O=C(NCc1cc2nc(-c3ccc4c(n3)C(F)(F)CC4)ccc2cn1)c1ccc2c(c1)S(=O)(=O)CCOC2 [Compound 678] | 0.0545 | 10.07 | 0.549
Cc1ccc2c(n1)N(c1ccc3cnc(CNC(=O)c4ccc5c(c4)S(=O)(=O)CCOC5)cc3c1)CCO2 [Compound 679] | 0.0189 | 22.41 | 0.423
Cc1ccc2c(n1)N(c1ccc3cnc(CNC(=O)c4ccc5c(c4)S(=O)(=O)[C@@H](C)COC5)cc3c1)CCO2 [Compound 680] | 0.0327 | 29.69 | 0.969
Cc1ccnc2c1N(C)CCN2c1ccc2cnc(CNC(=O)c3ccc4c(c3)S(=O)(=O)CCOC4)cc2n1 [Compound 681] | 0.033 | 9.53 | 0.315
CC(F)(F)c1ccc2c(c1)N(c1ccc3cnc(CNC(=O)c4ccc5c(c4)S(=O)(=O)CCOC5)cc3n1)CCO2 [Compound 682] | 0.0103 | 15.88 | 0.164
COc1cc2c(nc1C1CC1)N(c1ccc3cnc(CNC(=O)c4ccc5c(c4)S(=O)(=O)CCOC5)cc3n1)CCC2 [Compound 683] | 0.0763 | 10.42 | 0.795
O=C(NCc1cc2nc(N3CCN(C4CC4)c4cccnc43)ccc2cn1)c1ccc2c(c1)S(=O)(=O)CCOC2 [Compound 686] | 0.0143 | 13.91 | 0.199
C[C@@H]1CN(c2cccc(-c3ccc4cnc(CNC(=O)c5ccc6c(c5)S(=O)(=O)[C@@H](C)CO6)cc4n3)n2)C[C@H](C)O1 [Compound 687] | 0.0197 | 18.34 | 0.36
Cn1cnc2c1CCCN2c1ccc2cnc(CNC(=O)c3ccc4c(c3)S(=O)(=O)CCOC4)cc2n1 [Compound 688] | 0.257 | 6.65 | 1.71
O=C(NCc1cc2nc(N3CCCc4ccc([C@@H]5CC5(F)F)nc43)ccc2cn1)c1ccc2c(c1)S(=O)(=O)CCOC2 [Compound 689] | 0.0402 | 21.94 | 0.882
O=C(NCc1cc2nc(N3CCCc4ccc([C@H]5CC5(F)F)nc43)ccc2cn1)c1ccc2c(c1)S(=O)(=O)CCOC2 [Compound 690] | 0.0235 | 54.81 | 1.29
O=C(NCc1cc2nc(N3CCOc4cc(Cl)cnc43)ccc2cn1)c1cc(F)c2c(c1)S(=O)(=O)CCOC2 [Compound 691] | 0.0095 | 16.64 | 0.159
O=C(NCc1cc2nc(N3CCCc4ccc(OC5COC5)cc43)ccc2cn1)c1ccc2c(c1)S(=O)(=O)CCOC2 [Compound 692] | 0.006 | 14.09 | 0.0849
C[C@H]1CCN(C)c2nc(-c3ccc4cnc(CNC(=O)c5ccc6c(c5)S(=O)(=O)CCOC6)cc4n3)ccc21 [Compound 694] | 0.0342 | 8.38 | 0.287
C[C@@H]1CCN(C)c2nc(-c3ccc4cnc(CNC(=O)c5ccc6c(c5)S(=O)(=O)CCOC6)cc4n3)ccc21 [Compound 695] | 0.0433 | 9.72 | 0.42
COC[C@@H](C)Oc1ccc2c(c1)N(c1ccc3cnc(CNC(=O)c4ccc5c(c4)S(=O)(=O)CCOC5)cc3n1)CCC2 [Compound 696] | 0.0068 | 18.76 | 0.128
COC[C@H](C)Oc1ccc2c(c1)N(c1ccc3cnc(CNC(=O)c4ccc5c(c4)S(=O)(=O)CCOC5)cc3n1)CCC2 [Compound 697] | 0.0049 | 7.66 | 0.0379
O=C(NCc1cc2nc(N3CCOc4cc(Cl)c(C5CC5)nc43)ccc2cn1)c1ccc2c(c1)S(=O)(=O)CCOC2 [Compound 698] | 0.193 | 24.47 | 4.72
CN1CCC2(c3cccc(-c4ccc5cnc(CNC(=O)c6ccc7c(c6)S(=O)(=O)CCOC7)cc5n4)n3)CC2C1 (stereo not drawn) [Compound 699] | 0.275 | 8.04 | 2.21
O=C(NCc1cc2nc(N3CCOc4ccc([C@H]5CC5(F)F)nc43)ccc2cn1)c1ccc2c(c1)S(=O)(=O)CCOC2 [Compound 700] | 0.0145 | 52.11 | 0.758
COCCn1cc2cccc(-c3ccc4cnc(CNC(=O)c5ccc6c(c5)S(=O)(=O)CCOC6)cc4n3)c2n1 [Compound 701] | 0.0872 | 9.96 | 0.868
O=C(NCc1cc2nc(N3CCOc4ccc([C@@H]5CC5(F)F)nc43)ccc2cn1)c1ccc2c(c1)S(=O)(=O)CCOC2 [Compound 702] | 0.0102 | 93.83 | 0.96
